Patent US12503473B2, “Triazolopyrimidine compounds and their use in treating cancer” (Dizal (Jiangsu) Pharmaceutical Co., Ltd., priority 2018, dated 2025)

What was measured:
MCT4 [1] = biological target: T1, MCT4 (Homo sapiens, UniProt O15427); assay: Assay (a): lactate efflux from SK-Br-3 cells (lactate in media, 4 h); assay type: cell-based; design: a natively glycolytic human breast adenocarcinoma line predominantly expressing MCT4; host or cells: SK-Br-3; conditions: mean of at least three repeats (Example 32, marked *, two repeats), read-out: MCT4 lactate efflux pIC50 (SKBR3) (converted)
T1 sequence (O15427 1-465): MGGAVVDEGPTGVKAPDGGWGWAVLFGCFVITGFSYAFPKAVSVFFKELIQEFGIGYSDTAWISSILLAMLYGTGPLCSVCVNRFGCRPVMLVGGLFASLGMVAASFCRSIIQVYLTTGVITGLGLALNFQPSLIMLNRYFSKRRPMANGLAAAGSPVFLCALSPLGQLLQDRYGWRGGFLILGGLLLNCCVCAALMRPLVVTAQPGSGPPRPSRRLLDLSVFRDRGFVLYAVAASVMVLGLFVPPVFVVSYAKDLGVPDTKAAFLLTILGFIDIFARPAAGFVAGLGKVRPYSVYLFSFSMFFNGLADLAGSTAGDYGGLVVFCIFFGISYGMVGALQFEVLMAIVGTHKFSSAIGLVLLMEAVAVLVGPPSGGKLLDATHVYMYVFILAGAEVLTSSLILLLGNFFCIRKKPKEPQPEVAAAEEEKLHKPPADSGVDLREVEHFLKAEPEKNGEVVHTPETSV
Procedure: Assay plates were lidded and incubated for 4 hours at 37° C. and 5% CO2.

MCT4 [2] = biological target: T1, MCT4; assay: cell-based
Procedure: Cells were loaded with the pH sensitive dye BCECFAM(Invitrogen #B11150) before being washed to remove excess dye and seeded into the assay plates—directly onto the test compound—at a density of 15,000 cells/well (NCI—H358) or 30,000 cells/well (K562), in 30 μl HBSS with 1 mM [final] […] Assay plates were lidded and spun in a plate centrifuge at 170 g for 1 minute. Plates were then wrapped in foil and incubated in the dark for 1 hour at room temperature.
Following incubation with test compound, 10 μl of 25 mM Sodium-L-Lactate (Sigma #L7022) made up in HBSS with 1 mM [final] […] This addition was performed directly on the FLIPR Tetra platform (Molecular Devices) as part of a real-time kinetic read protocol. […] A percentage change from base-line was calculated for each test well and values normalised to control wells—treated with either DMSO (maximum assay signal) or chemistry related to that described in this patent (minimum assay signal)—before fitting concentration response curves to determine an IC50 value.

Row | Compound | IC50 (MCT4 [1]) [nM] | IC50 (MCT4 [2]) [nM]
1 | Cc1nc2nc(C)c(C[C@@H]3CCN(c4ccc(-c5ccc(CN6CCOCC6)cn5)cc4)C3)c(C)n2n1 [Example 23, (R)-4-((6-(4-(3-((2,5,7-trimethyl-[1,2,4]triazolo[1,5-a]pyrimidin-6-yl)methyl)pyrrolidin-1-yl)phenyl)pyridin-3-yl)methyl)morpholine] | 0.398 | 6.31
2 | Cc1nc2nc(C)c(C[C@@H]3CCN(c4ccc(-c5cnc(CN6CCN(C)CC6)cn5)cc4)C3)c(C)n2n1 [Example 21, (R)-2,5,7-trimethyl-6-((1-(4-(5-((4-methylpiperazin-1-yl)methyl)pyrazin-2-yl)phenyl)pyrrolidin-3-yl)methyl)-[1,2,4]triazolo[1,5-a]pyrimidine] | 1.26 | 20
3 | Cc1nc2nc(C)c(C[C@@H]3CCN(c4cnc(-c5ccc(CN6CCN(C)CC6)cc5)nc4)C3)c(C)n2n1 [Example 20, (R)-2,5,7-trimethyl-6-((1-(2-(4-((4-methylpiperazin-1-yl)methyl)phenyl)pyrimidin-5-yl)pyrrolidin-3-yl)methyl)-[1,2,4]triazolo[1,5-a]pyrimidine] | 0.501 | 39.8
4 | Cc1nc2nc(C)c(C[C@@H]3CCN(c4ccc(-c5ccc(CN6CCN(C)CC6)cn5)cc4)C3)c(C)n2n1 [Example 27, (R)-2,5,7-trimethyl-6-((1-(4-(5-((4-methylpiperazin-1-yl)methyl)pyridin-2-yl)phenyl)pyrrolidin-3-yl)methyl)-[1,2,4]triazolo[1,5-a]pyrimidine] | 0.631 | 20
5 | Cc1nc2nc(C)c(C[C@@H]3CCN(c4ccc(-c5ccc(CN6CCN(C)CC6)nc5)cn4)C3)c(C)n2n1 [Example 4, (R)-2,5,7-trimethyl-6-((1-(6′-((4-methylpiperazin-1-yl)methyl)-[3,3′-bipyridin]-6-yl)pyrrolidin-3-yl)methyl)-[1,2,4]triazolo[1,5-a]pyrimidine] | 0.631 | 39.8
6 | Cc1nc2nc(C)c(C[C@@H]3CCN(c4ccc(-c5ccc(CN6CCN(C)CC6)cc5)nc4)C3)c(C)n2n1 [Example 8, (R)-2,5,7-trimethyl-6-((1-(6-(4-((4-methylpiperazin-1-yl)methyl)phenyl)pyridin-3-yl)pyrrolidin-3-yl)methyl)-[1,2,4]triazolo[1,5-a]pyrimidine] | 0.631 | 25.1
7 | Cc1nc2nc(C)c(C[C@@H]3CCN(c4ncc(-c5ccc(CN6CCOCC6)cc5)cn4)C3)c(C)n2n1 [Example 6, (R)-4-(4-(2-(3-((2,5,7-trimethyl-[1,2,4]triazolo[1,5-a]pyrimidin-6-yl)methyl)pyrrolidin-1-yl)pyrimidin-5-yl)benzyl)morpholine] | 0.631 | 7.94
8 | Cc1nc2nc(C)c(C[C@@H]3CCN(c4cnc(-c5ccc(CN6CCOCC6)cc5)nc4)C3)c(C)n2n1 [Example 19, (R)-4-(4-(5-(3-((2,5,7-trimethyl-[1,2,4]triazolo[1,5-a]pyrimidin-6-yl)methyl)pyrrolidin-1-yl)pyrimidin-2-yl)benzyl)morpholine] | 0.2 | 7.94

Further lines, results first:

Row | IC50 (MCT4 [1]) [nM] | IC50 (MCT4 [2]) [nM] | Compound
9 | 0.631 | 7.94 | Cc1nc2nc(C)c(C[C@@H]3CCN(c4cnc(-c5ccc(CN6CCOCC6)nc5)cn4)C3)c(C)n2n1 [Example 49, (R)-4-((5-(5-(3-((2,5,7-trimethyl-[1,2,4]triazolo[1,5-a]pyrimidin-6-yl)methyl)pyrrolidin-1-yl)pyrazin-2-yl)pyridin-2-yl)methyl)morpholine]
10 | 3.98 | 126 | Cc1nc2nc(C)c(C[C@@H]3CCN(c4cnc(-c5ccc(CN6CCN(C)CC6)nc5)cn4)C3)c(C)n2n1 [Example 57, (R)-2,5,7-trimethyl-6-((1-(5-(6-((4-methylpiperazin-1-yl)methyl)pyridin-3-yl)pyrazin-2-yl)pyrrolidin-3-yl)methyl)-[1,2,4]triazolo[1,5-a]pyrimidine]
11 | 0.2 | 10 | Cc1nc2nc(C)c(C[C@@H]3CCN(c4cnc(-c5ccc(CN6CCN(S(C)(=O)=O)CC6)cc5)cn4)C3)c(C)n2n1 [Example 52, 2,5,7-trimethyl-6-({(3R)-1-[5-(4-{[4-(methylsulfonyl)piperazin-1-yl]methyl}phenyl)pyrazin-2-yl]pyrrolidin-3-yl}methyl)[1,2,4]triazolo[1,5-a]pyrimidine]
12 | 2 | 10 | Cc1nc2nc(C)c(C[C@@H]3CCN(c4cnc(-c5ccc(CN6CCOCC6)cn5)c(C)n4)C3)c(C)n2n1 [Example 47, (R)-4-((6-(3-methyl-5-(3-((2,5,7-trimethyl-[1,2,4]triazolo[1,5-a]pyrimidin-6-yl)methyl)pyrrolidin-1-yl)pyrazin-2-yl)pyridin-3-yl)methyl)morpholine]
13 | 2.51 | 12.6 | Cc1nc2nc(C)c(C[C@@H]3CCN(c4cnc(-c5ccc(CN6CCCC6)nc5)cn4)C3)c(C)n2n1 [Example 82, (R)-2,5,7-trimethyl-6-((1-(5-(6-(pyrrolidin-1-ylmethyl)pyridin-3-yl)pyrazin-2-yl)pyrrolidin-3-yl)methyl)-[1,2,4]triazolo[1,5-a]pyrimidine]
14 | 0.398 | 7.94 | Cc1nc2nc(C)c(C[C@@H]3CCN(c4cnc(-c5ccc(CN6CCN(C)CC6)cc5)c(C)n4)C3)c(C)n2n1 [Example 54, (R)-2,5,7-trimethyl-6-((1-(6-methyl-5-(4-((4-methylpiperazin-1-yl)methyl)phenyl)pyrazin-2-yl)pyrrolidin-3-yl)methyl)-[1,2,4]triazolo[1,5-a]pyrimidine]
15 | 0.631 | 20 | Cc1nc2nc(C)c(C[C@@H]3CCN(c4cnc(-c5ccc(CN6CCN(C)CC6)c(C)c5)cn4)C3)c(C)n2n1 [Example 56, (R)-2,5,7-trimethyl-6-((1-(5-(3-methyl-4-((4-methylpiperazin-1-yl)methyl)phenyl)pyrazin-2-yl)pyrrolidin-3-yl)methyl)-[1,2,4]triazolo[1,5-a]pyrimidine]
16 | 0.251 | 10 | Cc1nc2nc(C)c(C[C@@H]3CCN(c4cnc(-c5ccc(CN6CCN(C(=O)N(C)C)CC6)cc5)cn4)C3)c(C)n2n1 [Example 55, N,N-dimethyl-4-[4-(5-{(3R)-3-[(2,5,7-trimethyl[1,2,4]triazolo[1,5-a]pyrimidin-6-yl)methyl]pyrrolidin-1-yl}pyrazin-2-yl)benzyl]piperazine-1-carboxamide]
17 | 3.16 | 50.1 | COc1cc(CN2CCN(C)CC2)ccc1-c1ncc(N2CC[C@@H](Cc3c(C)nc4nc(C)nn4c3C)C2)nc1C [Example 31, (R)-6-((1-(5-(2-methoxy-4-((4-methylpiperazin-1-yl)methyl)phenyl)-6-methylpyrazin-2-yl)pyrrolidin-3-yl)methyl)-2,5,7-trimethyl-[1,2,4]triazolo[1,5-a]pyrimidine]
18 | 0.631 | 25.1 | Cc1nc2nc(C)c(C[C@@H]3CCN(c4cnc(-c5ccc(CN6CCN(CC(=O)N(C)C)CC6)cc5)cn4)C3)c(C)n2n1 [Example 53, (R)—N,N-dimethyl-2-(4-(4-(5-(3-((2,5,7-trimethyl-[1,2,4]triazolo[1,5-a]pyrimidin-6-yl)methyl)pyrrolidin-1-yl)pyrazin-2-yl)benzyl)piperazin-1-yl)acetamide]
